According to patent US8183239B2, “Substituted piperazines and piperidines as modulators of the neuropeptide Y2 receptor” (Janssen Pharmaceutica NV, priority 2005, dated 2012):

target: T1, Y2 receptors (Homo sapiens, UniProt P49146); test: Radioligand binding assay ([125I]PYY, KAN-Ts cell membranes); details: Table 1, [125I]PYY 80 pM, average of results, read-out: IC50
T1 construct: endogenous in cells; host or cells: KAN-Ts cells (membranes)
T1 sequence (P49146 1-381): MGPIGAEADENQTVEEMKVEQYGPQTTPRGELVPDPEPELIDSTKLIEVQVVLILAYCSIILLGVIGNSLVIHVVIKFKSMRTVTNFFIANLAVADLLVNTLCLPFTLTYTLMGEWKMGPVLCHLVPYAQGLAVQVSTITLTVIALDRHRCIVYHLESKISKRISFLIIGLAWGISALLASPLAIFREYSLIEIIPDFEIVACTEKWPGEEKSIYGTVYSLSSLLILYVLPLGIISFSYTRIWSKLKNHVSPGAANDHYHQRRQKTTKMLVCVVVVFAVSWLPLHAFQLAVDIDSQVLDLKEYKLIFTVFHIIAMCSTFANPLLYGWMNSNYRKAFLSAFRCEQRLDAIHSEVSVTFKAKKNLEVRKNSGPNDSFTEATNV
Protocol: Radioligand Binding Assay
KAN-Ts endogenously expressing Y2 receptors were used for the radioligand binding assay. Cells were grown to confluence on 150 cm^2 tissue culture plates, washed with phosphate-buffered saline (PBS), and scraped into 50 mL tubes. After centrifugation, the supernatant was aspirated, and the pellets frozen and stored at −80° C. Thawed pellets were homogenized with a polytron tissue grinder for 15 sec in 20 mM Tris-HCl, 5 mM EDTA. The homogenate was centrifuged at 800×g for 5 min and the collected supernatant was recentrifuged at 25000×g for 25 min. The resulting pellet was resuspended in binding buffer (20 mM HEPES, 120 mM NaCl, 0.22 mM KH2PO4, 1.3 mM CaCl2, 0.8 mM MgSO4). Membranes were incubated with [^125I]PYY (80 pM) in the presence or absence of test compound for 1 h at rt. The reaction was stopped by filtration through GF/C filter plates pre-soaked in 0.3% polyethylenimine and subsequently washed with Tris 50 mM, 5 mM EDTA buffer. Plates were dried for 1 h in a 55° C. oven, scintillation fluid was added and the radioactivity was counted in a Packard TopCount. Specific binding to the NPY receptor subtypes was determined by radioactivity that was bound in the presence of […]. Each binding experiment was repeated three to eight times, each in duplicate. IC50 values (i.e. concentration of unlabelled peptide or antagonist required to compete for 50% of specific binding to the radioligand) were calculated using the GraphPad Prism software (GraphPad Software Inc., San Diego Calif.) with a fit to a sigmoidal dose response curve. Data for compounds tested are presented in Tables 1 and 2 as an average of results obtained.

Row | Structure (SMILES) | IC50
1 | CCC(CC)C(=O)Nc1ccc(N2CCN(Cc3ccccc3C(=O)OC)CC2)c(F)c1 [Example 2, 2-{4-[4-(2-Ethyl-butyrylamino)-2-fluoro-phenyl]-piperazin-1-ylmethyl}-benzoic acid methyl ester] | 2350 nM
2 | CCC(CC)C(=O)Nc1ccc(N2CCN(Cc3cccc(C(=O)N4CCOCC4)c3)CC2)c(F)c1 [Example 3, 2-Ethyl-N-(3-fluoro-4-{4-[3-(morpholine-4-carbonyl)-benzyl]-piperazin-1-yl}-phenyl)-butyramide] | 560 nM
3 | CCC(CC)C(=O)Nc1ccc(N2CCN(Cc3ccccc3C(=O)N(CC)CC)CC2)c(F)c1 [Example 4, N,N-Diethyl-2-{4-[4-(2-ethyl-butyrylamino)-2-fluoro-phenyl]-piperazin-1-ylmethyl}-benzamide] | 370 nM
4 | CCC(CC)C(=O)Nc1ccc(N2CCN(Cc3ccccc3C(=O)N3CCOCC3)CC2)c(F)c1 [Example 5, 2-Ethyl-N-(3-fluoro-4-{4-[2-(morpholine-4-carbonyl)-benzyl]-piperazin-1-yl}-phenyl)-butyramide] | 1900 nM
5 | CCNC(=O)C(c1ccccc1)N1CCN(c2ccc(NC(=O)C(CC)CC)cc2F)CC1 (stereo not shown) [Example 7, 2-Ethyl-N-{4-[4-(ethylcarbamoyl-phenyl-methyl)-piperazin-1-yl]-3-fluoro-phenyl}-butyramide] | 377 nM
6 | CCN(CC)C(=O)C(c1ccccc1)C1CCN(c2ccc(NC(=O)Cc3c(C)noc3C)cc2F)CC1 (stereo not shown) [Example 9, 2-(1-{4-[2-(3,5-Dimethyl-isoxazol-4-yl)-acetylamino]-2-fluoro-phenyl}-piperidin-4-yl)-N,N-diethyl-2-phenyl-acetamide] | 14 nM
7 | CCC(CC)C(=O)Nc1ccc(N2CCC(C(C(=O)N(CC)CC)c3ccccc3)CC2)c(F)c1 (stereo not shown) [Example 11, N-{4-[4-(Diethylcarbamoyl-phenyl-methyl)-piperidin-1-yl]-3-fluoro-phenyl}-2-ethyl-butyramide] | 12 nM
8 | CCNC(=O)C(c1ccccc1)C1CCN(c2ccc(NC(=O)NCc3ccc(F)cc3)cc2F)CC1 (stereo not shown) [Example 17, N-Ethyl-2-(1-{2-fluoro-4-[3-(4-fluoro-benzyl)-ureido]-phenyl}-piperidin-4-yl)-2-phenyl-acetamide] | 1000 nM
9 | CCNC(=O)C(c1ccccc1)C1CCN(c2ccc(NC(=O)C(C)C)cc2)CC1 (stereo not shown) [Example 18, N-{4-[4-(Ethylcarbamoyl-phenyl-methyl)-piperidin-1-yl]-phenyl}-isobutyramide] | 4000 nM
10 | CCNC(=O)C(c1ccccc1)C1CCN(c2ccc(NC(=O)CC3CCCCC3)cc2F)CC1 (stereo not shown) [Example 19, 2-{1-[4-(2-Cyclohexyl-acetylamino)-2-fluoro-phenyl]-piperidin-4-yl}-N-ethyl-2-phenyl-acetamide] | 10000 nM
11 | CCN(CC)C(=O)C(c1ccccc1)N1CCN(c2ccc(NC(=O)Nc3c(C)noc3C)cc2F)CC1 (stereo not shown) [Example 20, 2-(4-{4-[3-(3,5-Dimethyl-isoxazol-4-yl)-ureido]-2-fluoro-phenyl}-piperazin-1-yl)-N,N-diethyl-2-phenyl-acetamide] | 16 nM
12 | CCN(CC)C(=O)C(c1ccccc1)N1CCN(c2ccc(NC(=O)Cc3c(C)noc3C)cc2F)CC1 (stereo not shown) [Example 21, 2-(4-{4-[2-(3,5-Dimethyl-isoxazol-4-yl)-acetylamino]-2-fluoro-phenyl}-piperazin-1-yl)-N,N-diethyl-2-phenyl-acetamide] | 20 nM
13 | CCN(CC)C(=O)C(c1ccccc1)N1CCN(c2ccc(NC(=O)c3c(C)noc3C)cc2F)CC1 (stereo not shown) [Example 22, 3,5-Dimethyl-isoxazole-4-carboxylic acid {4-[4-(diethylcarbamoyl-phenyl-methyl)-piperazin-1-yl]-3-fluoro-phenyl}-amide] | 26 nM
14 | CCNC(=O)C(c1ccccc1)N1CCN(c2ccc(NC(=O)NCc3ccc(F)cc3)cc2F)CC1 (stereo not shown) [Example 26, N-Ethyl-2-(4-{2-fluoro-4-[3-(4-fluoro-benzyl)-ureido]-phenyl}-piperazin-1-yl)-2-phenyl-acetamide] | 2000 nM

Second part, the compound after the results:

Row | IC50 | Structure (SMILES)
15 | 58 nM | CCC(CC)C(=O)Nc1ccc(N2CCN(C(C(=O)N3CCCC3)c3ccccc3)CC2)c(F)c1 (stereo not shown) [Example 1, 2-Ethyl-N-{3-fluoro-4-[4-(2-oxo-1-phenyl-2-pyrrolidin-1-yl-ethyl)-piperazin-1-yl]-phenyl}-butyramide]
16 | 71 nM | CCC(CC)C(=O)Nc1ccc(N2CCN(C(C(=O)N(CC)CC)c3ccccc3)CC2)c(F)c1 (stereo not shown) [Example 6, N-{4-[4-(Diethylcarbamoyl-phenyl-methyl)-piperazin-1-yl]-3-fluoro-phenyl}-2-ethyl-butyramide]
17 | 10 nM | CCN(CC)C(=O)C(c1ccccc1)C1CCN(c2ccc(NC(=O)Nc3c(C)noc3C)cc2F)CC1 (stereo not shown) [Example 8, 2-(1-{4-[3-(3,5-Dimethyl-isoxazol-4-yl)-ureido]-2-fluoro-phenyl}-piperidin-4-yl)-N,N-diethyl-2-phenyl-acetamide]
18 | 26 nM | CCN(CC)C(=O)C(c1ccccc1)C1CCN(c2ccc(NC(=O)c3c(C)noc3C)cc2F)CC1 (stereo not shown) [Example 12, 3,5-Dimethyl-isoxazole-4-carboxylic acid {4-[4-(diethylcarbamoyl-phenyl-methyl)-piperidin-1-yl]-3-fluoro-phenyl}-amide]
19 | 58 nM | CCNC(=O)C(c1ccccc1)C1CCN(c2ccc(NC(=O)Cc3c(C)noc3C)cc2F)CC1 (stereo not shown) [Example 13, 2-(1-{4-[2-(3,5-Dimethyl-isoxazol-4-yl)-acetylamino]-2-fluoro-phenyl}-piperidin-4-yl)-N-ethyl-2-phenyl-acetamide]
20 | 112 nM | CCNC(=O)C(c1ccccc1)C1CCN(c2ccc(NC(=O)C(CC)CC)cc2F)CC1 (stereo not shown) [Example 14, 2-Ethyl-N-{4-[4-(ethylcarbamoyl-phenyl-methyl)-piperidin-1-yl]-3-fluoro-phenyl}-butyramide]
21 | 162 nM | CCNC(=O)C(c1ccccc1)C1CCN(c2ccc(NC(=O)Nc3c(C)cccc3C)cc2F)CC1 (stereo not shown) [Example 15, 2-(1-{4-[3-(2,6-Dimethyl-phenyl)-ureido]-2-fluoro-phenyl}-piperidin-4-yl)-N-ethyl-2-phenyl-acetamide]
22 | 280 nM | CCCC(CCC)C(=O)Nc1ccc(N2CCC(C(C(=O)NCC)c3ccccc3)CC2)c(F)c1 (stereo not shown) [Example 16, 2-Propyl-pentanoic acid {4-[4-(ethylcarbamoyl-phenyl-methyl)-piperidin-1-yl]-3-fluoro-phenyl}-amide]
23 | 42 nM | CCNC(=O)C(c1ccccc1)N1CCN(c2ccc(NC(=O)Nc3c(C)noc3C)cc2F)CC1 (stereo not shown) [Example 23, 2-(4-{4-[3-(3,5-Dimethyl-isoxazol-4-yl)-ureido]-2-fluoro-phenyl}-piperazin-1-yl)-N-ethyl-2-phenyl-acetamide]
24 | 176 nM | CCNC(=O)C(c1ccccc1)N1CCN(c2ccc(NC(=O)Cc3c(C)noc3C)cc2F)CC1 (stereo not shown) [Example 24, 2-(4-{4-[2-(3,5-Dimethyl-isoxazol-4-yl)-acetylamino]-2-fluoro-phenyl}-piperazin-1-yl)-N-ethyl-2-phenyl-acetamide]
25 | 260 nM | CCNC(=O)C(c1ccccc1)N1CCN(c2ccc(NC(=O)Nc3cc(C)ccc3C)cc2F)CC1 (stereo not shown) [Example 25, 2-(4-{4-[3-(2,5-Dimethyl-phenyl)-ureido]-2-fluoro-phenyl}-piperazin-1-yl)-N-ethyl-2-phenyl-acetamide]

same assay, conditions: Table 2, [125I]PYY 80 pM, average of results, read-out: IC50

Row | IC50 | Structure (SMILES)
26 | 2300 nM | CCC(CC)C(=O)Nc1ccc(N2CCN(C(C(=O)OC)c3ccccc3)C(C(=O)OC)C2)c(F)c1 (single isomer, unassigned; diastereomer 1) [Example 269, 4-[4-(2-Ethyl-butyrylamino)-2-fluoro-phenyl]-1-(methoxycarbonyl-phenyl-methyl)-piperazine-2-carboxylic acid methyl ester (diastereomer 1)]
27 | 600 nM | CCC(CC)C(=O)Nc1ccc(N2CCN(C(C(=O)OC)c3ccccc3)C(C(=O)OC)C2)c(F)c1 (single isomer, unassigned; diastereomer 2) [Example 265, 4-[4-(2-Ethyl-butyrylamino)-2-fluoro-phenyl]-1-(methoxycarbonyl-phenyl-methyl)-piperazine-2-carboxylic acid methyl ester (diastereomer 2)]
28 | 30 nM | CC[C@H](C)C(=O)Nc1ccc(N2CCC(C(C(=O)N(CC)CC)c3ccccc3)CC2)c(C#N)c1 (stereo in doubt) [Example 218, N-{3-Cyano-4-[4-(diethylcarbamoyl-phenyl-methyl)-piperidin-1-yl]-phenyl}-2-methyl-butyramide]
